# Laboratory results from patent US6596512B1 (American Cyanamid Company, priority 1997, dated 2003).
# T1: CeDAT1 (Caenorhabditis elegans, UniProt Q03614)
# T1 sequence (Q03614 20-615): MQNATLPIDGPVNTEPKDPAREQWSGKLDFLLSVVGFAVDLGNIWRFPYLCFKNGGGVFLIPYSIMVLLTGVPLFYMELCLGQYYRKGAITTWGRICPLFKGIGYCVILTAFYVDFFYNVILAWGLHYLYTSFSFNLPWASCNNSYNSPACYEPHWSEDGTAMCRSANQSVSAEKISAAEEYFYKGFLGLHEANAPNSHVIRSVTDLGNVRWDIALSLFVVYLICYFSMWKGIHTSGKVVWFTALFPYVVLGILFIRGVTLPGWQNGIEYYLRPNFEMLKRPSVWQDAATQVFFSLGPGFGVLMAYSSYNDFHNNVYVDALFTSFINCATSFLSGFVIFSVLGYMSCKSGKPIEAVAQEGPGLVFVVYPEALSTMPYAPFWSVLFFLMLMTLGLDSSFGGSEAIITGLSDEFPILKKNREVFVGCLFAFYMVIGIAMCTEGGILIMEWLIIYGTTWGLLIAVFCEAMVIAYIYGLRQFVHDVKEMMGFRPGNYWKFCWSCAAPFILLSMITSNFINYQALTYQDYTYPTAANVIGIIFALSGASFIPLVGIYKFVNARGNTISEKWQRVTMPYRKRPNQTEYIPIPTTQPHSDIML
# Legend:
# CeDAT1 [1] = molecular target: T1, CeDAT1; assay: Saturation kinetics of catecholamine transport in pCeDAT1 transfected HeLa cells; assay type: cell-based, C. elegans; conditions: radiolabeled substrate
# CeDAT1 [2] = molecular target: T1, CeDAT1; assay: cell-based; set-up: species or system C. elegans
# CeDAT1 [3] = molecular target: T1, CeDAT1; assay type: cell-based, C. elegans; conditions: radiolabeled substrates each at 50 nm, pCeDAT1
# [4] = test system: CeDAT2 (Caenorhabditis elegans); assay type: cell-based, C. elegans; conditions: radiolabeled substrates each at 50 nm, pCeDAT2
# Sequence of CeDAT2 (Caenorhabditis elegans) (Q03614 whole entry): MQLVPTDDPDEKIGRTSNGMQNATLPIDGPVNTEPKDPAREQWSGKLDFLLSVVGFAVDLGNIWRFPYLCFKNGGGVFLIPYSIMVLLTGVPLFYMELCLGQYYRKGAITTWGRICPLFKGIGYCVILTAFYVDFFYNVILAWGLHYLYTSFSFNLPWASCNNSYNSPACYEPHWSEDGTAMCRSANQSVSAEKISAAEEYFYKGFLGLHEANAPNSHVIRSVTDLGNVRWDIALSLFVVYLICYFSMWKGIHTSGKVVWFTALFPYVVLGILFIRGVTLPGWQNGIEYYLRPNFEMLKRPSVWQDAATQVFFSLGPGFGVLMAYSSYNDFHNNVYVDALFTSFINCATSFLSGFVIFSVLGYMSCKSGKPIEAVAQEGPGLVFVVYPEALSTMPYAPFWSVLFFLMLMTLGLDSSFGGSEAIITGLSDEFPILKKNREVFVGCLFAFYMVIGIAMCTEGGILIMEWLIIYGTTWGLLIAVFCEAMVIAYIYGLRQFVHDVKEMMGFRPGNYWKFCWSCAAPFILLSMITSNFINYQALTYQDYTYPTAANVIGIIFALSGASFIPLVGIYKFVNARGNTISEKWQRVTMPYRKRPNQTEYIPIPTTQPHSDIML
# [5] = substrate: NC[C@H](O)c1ccc(O)c(O)c1; assay: cells, lysate or membranes; conditions: 37.0 °C
molecule,measurement,setting,value
"NC[C@H](O)c1ccc(O)c(O)c1 [NE, Norepinephrine]",Vmax of transport,CeDAT1 [1],0.46 pmol/10^6 cells/min
"NCCc1ccc(O)c(O)c1 [DA, Dopamine]",Ki,CeDAT1 [2],146 nM
same,Potency as inhibitor of transport relative to L-NE,"CeDAT1 [2]; pCeDAT1, HeLa cells, DA versus L-NE",~10 fold
same,Vmax of transport,CeDAT1 [1],0.6 pmol/10^6 cells/min
same,Extent of transport relative to NE,CeDAT1 [3],~2 fold
NCCc1ccc(O)cc1 [Tyramine],Ki,CeDAT1 [2],827 nM
COC(=O)[C@H]1[C@@H](OC(=O)c2ccccc2)C[C@@H]2CC[C@H]1N2C [cocaine],Ki,CeDAT1 [2],3500 nM
CNCCC(Oc1ccccc1OC)c1ccccc1 (stereo not drawn) [nisoxetine],Ki,CeDAT1 [2],3 nM
"NCCc1c[nH]c2ccc(O)cc12 [5HT, Serotonin]",Transport of radiolabeled substrate,CeDAT1 [3],little or no transport
same,Transport of radiolabeled substrate,[4],transported only at very low levels
CNC[C@H](O)c1ccc(O)c(O)c1 [Epi],Transport of radiolabeled substrate,CeDAT1 [3],little or no transport
same,Transport of radiolabeled substrate,[4],transported only at very low levels
Fc1ccc(C(OCCN2CCN(CCCc3ccccc3)CC2)c2ccc(F)cc2)cc1 [GBR12909],Ki,CeDAT1 [2],70 nM
OC1(c2ccc(Cl)cc2)c2ccccc2C2=NCCN21 (stereo not drawn) [mazindol],Ki,CeDAT1 [2],8 nM
CeDAT1 (Caenorhabditis elegans) (protein) MQNATLPIDGPVNTEPKDPAREQWSGKLDFLLSVVGFAVDLGNIWRFPYLCFKNGGGVFLIPYSIMVLLTGVPLFYMELCLGQYYRKGAITTWGRICPLFKGIGYCVILTAFYVDFFYNVILAWGLHYLYTSFSFNLPWASCNNSYNSPACYEPHWSEDGTAMCRSANQSVSAEKISAAEEYFYKGFLGLHEANAPNSHVIRSVTDLGNVRWDIALSLFVVYLICYFSMWKGIHTSGKVVWFTALFPYVVLGILFIRGVTLPGWQNGIEYYLRPNFEMLKRPSVWQDAATQVFFSLGPGFGVLMAYSSYNDFHNNVYVDALFTSFINCATSFLSGFVIFSVLGYMSCKSGKPIEAVAQEGPGLVFVVYPEALSTMPYAPFWSVLFFLMLMTLGLDSSFGGSEAIITGLSDEFPILKKNREVFVGCLFAFYMVIGIAMCTEGGILIMEWLIIYGTTWGLLIAVFCEAMVIAYIYGLRQFVHDVKEMMGFRPGNYWKFCWSCAAPFILLSMITSNFINYQALTYQDYTYPTAANVIGIIFALSGASFIPLVGIYKFVNARGNTISEKWQRVTMPYRKRPNQTEYIPIPTTQPHSDIML,Km,[5],4.1 µM
